{
  "source": "patent US6753345B2",
  "about": "“7-hexanolytaxol and methods for preparing the same” (Hauser, Inc., priority 1998, dated 2004)",
  "key": {"[1]": {"system": "UO-31", "assay": "SRB cytotoxicity screening assay (Renal Cancer)", "settings": "Homo sapiens, UO-31, 48 h"}, "[2]": {"system": "MALME-3M", "assay": "SRB cytotoxicity screening assay (Melanoma)", "settings": "MALME-3M (Melanoma); PG=0; 48 hour incubation"}, "[3]": {"system": "786-0", "assay": "SRB cytotoxicity screening assay (Renal Cancer)"}, "[4]": {"system": "M14", "assay": "SRB cytotoxicity screening assay (Melanoma)"}, "[5]": {"system": "LOX-IMVI", "assay": "cells", "settings": "Homo sapiens, 48 h, read-out: Log10 GI50 (converted)"}, "[6]": {"system": "U251", "assay": "SRB cytotoxicity screening assay (CNS Cancer)"}, "[7]": {"system": "NCI-H322M", "assay": "cells", "settings": "Homo sapiens, 48 h"}, "[8]": {"system": "MOLT-4", "assay": "SRB cytotoxicity screening assay (Leukemia)"}, "[9]": {"system": "HOP-62", "assay": "SRB cytotoxicity screening assay (Non-Small Cell Lung Cancer)"}, "[10]": {"system": "SW-620", "assay": "SRB cytotoxicity screening assay (Colon Cancer)"}, "[11]": {"system": "HT29", "assay": "SRB cytotoxicity screening assay (Colon Cancer)", "settings": "Homo sapiens, HT-29, 48 h, read-out: Log10 LC50 (converted)"}, "[12]": {"system": "K-562", "assay": "SRB cytotoxicity screening assay (Leukemia)"}, "[13]": {"system": "SR", "assay": "SRB cytotoxicity screening assay (Leukemia)"}, "[14]": {"system": "EKVX", "assay": "SRB cytotoxicity screening assay (Non-Small Cell Lung Cancer)", "settings": "Homo sapiens, EKVX, 48 h, read-out: Log10 LC50 (converted)"}, "[15]": {"system": "NCI-H226", "assay": "SRB cytotoxicity screening assay (Non-Small Cell Lung Cancer)", "settings": "Homo sapiens, NCI-H226, 48 h, read-out: Log10 LC50 (converted)"}, "[16]": {"system": "MCF7", "assay": "SRB cytotoxicity screening assay (Breast Cancer)", "settings": "Homo sapiens, MCF7, 48 h"}, "[17]": {"system": "RPMI-8226", "assay": "SRB cytotoxicity screening assay (Leukemia)"}, "[18]": {"system": "MDA-MB-231/ATCC", "assay": "SRB cytotoxicity screening assay (Breast Cancer)"}, "[19]": {"system": "OVCAR-3", "assay": "SRB cytotoxicity screening assay (Ovarian)"}, "[20]": {"system": "LOX-IMVI", "settings": "LOX-IMVI (Melanoma); PG=0; 48 hour incubation"}, "[21]": {"system": "SN12C", "assay": "SRB cytotoxicity screening assay (Renal Cancer)", "settings": "Homo sapiens, SN12C, 48 h"}, "[22]": {"system": "CCRF-CEM", "assay": "SRB cytotoxicity screening assay (Leukemia)", "settings": "for Log10 TGI: CCRF-CEM (Leukemia), PG=0, 48 hour incubation"}, "[23]": {"system": "26 cell lines", "assay": "26 cell line growth inhibition screen, sulforhodamine stain", "assay_type": "cell-based", "settings": "26 cell lines, 48 hour drug treatment, sulforhodamine stain"}, "[24]": {"system": "SNB-19", "assay": "SRB cytotoxicity screening assay (CNS Cancer)"}, "[25]": {"settings": "read-out: Log10 GI50 (converted)"}, "[26]": {"settings": "read-out: Log10 LC50 (converted)"}},
  "note": "Where two headings read alike, the source gives them in different places.",
  "data": [
    {"smiles": "CC(=O)O[C@H]1C(=O)[C@@]2(C)[C@H]([C@H](OC(=O)c3ccccc3)[C@]3(O)C[C@H](OC(=O)[C@H](O)[C@@H](NC(=O)c4ccccc4)c4ccccc4)C(C)=C1C3(C)C)[C@]1(OC(C)=O)CO[C@@H]1C[C@@H]2O", "note": "[Paclitaxel, paclitaxel, reference compound]", "values": [
      {"measurement": "GI50", "setting": "[1]; [25]", "value": 813, "unit": "nM"},
      {"measurement": "CC50", "setting": "[1]; [26]", "value": "> 100000", "unit": "nM"},
      {"measurement": "Log10 TGI", "setting": "[2]", "value": "−4.46", "unit": "molar"},
      {"measurement": "Log10 TGI", "setting": "[3]; 786-0 (Renal Cancer), PG=0, 48 hour incubation", "value": ">−4.00", "unit": "molar"},
      {"measurement": "GI50", "setting": "[3]; Homo sapiens, 786-0, 48 h, read-out: Log10 GI50 (converted)", "value": 9.77, "unit": "nM"},
      {"measurement": "CC50", "setting": "[3]; Homo sapiens, 786-0, 48 h, read-out: Log10 LC50 (converted)", "value": "> 100000", "unit": "nM"},
      {"measurement": "GI50", "setting": "[4]; Homo sapiens, M14, 48 h, read-out: Log10 GI50 (converted)", "value": 0.00186, "unit": "nM"},
      {"measurement": "Log10 TGI", "setting": "[4]; M14 (Melanoma), PG=0, 48 hour incubation", "value": "−4.62", "unit": "molar"},
      {"measurement": "GI50", "setting": "[5]", "value": 0.00158, "unit": "nM"},
      {"measurement": "GI50", "setting": "[6]; Homo sapiens, U-251, 48 h, read-out: Log10 GI50 (converted)", "value": 0.00513, "unit": "nM"},
      {"measurement": "Log10 TGI", "setting": "[6]; U251 (CNS Cancer), PG=0, 48 hour incubation", "value": "−4.32", "unit": "molar"},
      {"measurement": "GI50", "setting": "[7]; [25]", "value": 0.0759, "unit": "nM"},
      {"measurement": "CC50", "setting": "[7]; [26]", "value": "> 100000", "unit": "nM"},
      {"measurement": "GI50", "setting": "[8]; Homo sapiens, MOLT-4, 48 h, read-out: Log10 GI50 (converted)", "value": 0.00851, "unit": "nM"},
      {"measurement": "CC50", "setting": "[8]; Homo sapiens, MOLT-4, 48 h, read-out: Log10 LC50 (converted)", "value": "> 100000", "unit": "nM"},
      {"measurement": "Log10 TGI", "setting": "[8]; MOLT-4 (Leukemia), PG=0, 48 hour incubation", "value": ">−4.00", "unit": "molar"},
      {"measurement": "Log10 TGI", "setting": "[9]; HOP-62 (Non-Small Cell Lung Cancer), PG=0, 48 hour incubation", "value": "−4.80", "unit": "molar"},
      {"measurement": "GI50", "setting": "[9]; Homo sapiens, HOP-62, 48 h, read-out: Log10 GI50 (converted)", "value": 0.214, "unit": "nM"},
      {"measurement": "CC50", "setting": "[9]; Homo sapiens, HOP-62, 48 h, read-out: Log10 LC50 (converted)", "value": 89100, "unit": "nM"},
      {"measurement": "GI50", "setting": "[10]; Homo sapiens, SW-620, 48 h, read-out: Log10 GI50 (converted)", "value": 0.00251, "unit": "nM"},
      {"measurement": "Log10 TGI", "setting": "[10]; SW-620 (Colon Cancer), PG=0, 48 hour incubation", "value": ">−4.00", "unit": "molar"},
      {"measurement": "CC50", "setting": "[11]", "value": 33100, "unit": "nM"},
      {"measurement": "GI50", "setting": "[12]; Homo sapiens, K562, 48 h, read-out: Log10 GI50 (converted)", "value": 0.0148, "unit": "nM"},
      {"measurement": "CC50", "setting": "[12]; Homo sapiens, K562, 48 h, read-out: Log10 LC50 (converted)", "value": "> 100000", "unit": "nM"},
      {"measurement": "Log10 TGI", "setting": "[12]; K-562 (Leukemia), PG=0, 48 hour incubation", "value": ">−4.00", "unit": "molar"},
      {"measurement": "GI50", "setting": "[13]; Homo sapiens, SR, 48 h, read-out: Log10 GI50 (converted)", "value": 4.57, "unit": "nM"},
      {"measurement": "CC50", "setting": "[13]; Homo sapiens, SR, 48 h, read-out: Log10 LC50 (converted)", "value": "> 100000", "unit": "nM"},
      {"measurement": "Log10 TGI", "setting": "[13]; SR (Leukemia), PG=0, 48 hour incubation", "value": ">−4.00", "unit": "molar"},
      {"measurement": "CC50", "setting": "[14]", "value": "> 100000", "unit": "nM"},
      {"measurement": "CC50", "setting": "[15]", "value": "> 100000", "unit": "nM"},
      {"measurement": "GI50", "setting": "[16]; [25]", "value": 0.00204, "unit": "nM"},
      {"measurement": "CC50", "setting": "[16]; [26]", "value": "> 100000", "unit": "nM"},
      {"measurement": "CC50", "setting": "[17]; Homo sapiens, RPMI-8226, 48 h, read-out: Log10 LC50 (converted)", "value": "> 100000", "unit": "nM"},
      {"measurement": "Log10 TGI", "setting": "[17]; RPMI-8226 (Leukemia), PG=0, 48 hour incubation", "value": ">−4.00", "unit": "molar"},
      {"measurement": "GI50", "setting": "[18]; Homo sapiens, MDA-MB-231, 48 h, read-out: Log10 GI50 (converted)", "value": 2.88, "unit": "nM"},
      {"measurement": "CC50", "setting": "[18]; Homo sapiens, MDA-MB-231, 48 h, read-out: Log10 LC50 (converted)", "value": 51300, "unit": "nM"},
      {"measurement": "Log10 TGI", "setting": "[18]; MDA-MB-231/ATCC (Breast Cancer), PG=0, 48 hour incubation", "value": "−4.84", "unit": "molar"},
      {"measurement": "GI50", "setting": "[19]; Homo sapiens, OVCAR-3, 48 h, read-out: Log10 GI50 (converted)", "value": 0.0398, "unit": "nM"},
      {"measurement": "Log10 TGI", "setting": "[19]; OVCAR-3 (Ovarian), PG=0, 48 hour incubation", "value": "−4.55", "unit": "molar"},
      {"measurement": "Log10 TGI", "setting": "[20]", "value": "−4.65", "unit": "molar"},
      {"measurement": "GI50", "setting": "[21]; [25]", "value": 0.295, "unit": "nM"},
      {"measurement": "CC50", "setting": "[21]; [26]", "value": "> 100000", "unit": "nM"},
      {"measurement": "Log10 TGI", "setting": "[22]", "value": ">−4.00", "unit": "molar"},
      {"measurement": "Log10 TGI", "setting": "[22]; listed as paclitaxel", "value": "greater than −4.00 molar"},
      {"measurement": "GI50", "setting": "[22]; Homo sapiens, CCRF-CEM, 48 h, read-out: Log10 GI50 (converted)", "value": 0.00245, "unit": "nM"},
      {"measurement": "IC50", "setting": "[23]; read-out: Mean IC50 (26 cell line Mean Growth inhibition IC50 value)", "value": 0.02, "unit": "µg/mL"},
      {"measurement": "IC50", "setting": "[23]; read-out: Min IC50 (lowest observed IC50 value in 26 cell line screen)", "value": 0.001, "unit": "µg/mL"},
      {"measurement": "GI50", "setting": "[24]; Homo sapiens, SNB-19, 48 h, read-out: Log10 GI50 (converted)", "value": 1.05, "unit": "nM"},
      {"measurement": "CC50", "setting": "[24]; Homo sapiens, SNB-19, 48 h, read-out: Log10 LC50 (converted)", "value": "> 100000", "unit": "nM"},
      {"measurement": "Log10 TGI", "setting": "[24]; SNB-19 (CNS Cancer), PG=0, 48 hour incubation", "value": ">−4.00", "unit": "molar"}
    ]}
  ]
}
